System: Fusarium graminearum
Assay: Antifungal activity against Fusarium graminearum JT04 assessed as inhibition of mycelial growth
Assay type: functional, organism-based

COC(=O)Nc1nc2ccccc2[nH]1 [CARBENDAZIM]
MIC: > 200 µg/mL

Source: ChEMBL document CHEMBL3045889 (Pest Manag Sci, 2012)
